Test results from patent US20250019361A1, “(3-QUINOLYL)-QUINAZOLINE” (BASF SE, priority 2021, published 2025).

Tested on: Septoria tritici
Test: Microtest: activity against leaf blotch on wheat caused by Septoria tritici
Assay type: cell-based
Conditions: 8 ppm
Method: The active compounds were formulated separately as a stock solution having a concentration of 10000 ppm in dimethyl sulfoxide.
The stock solutions were mixed according to the ratio, pipetted onto a micro titer plate (MTP) and diluted with water to the stated concentrations.
A spore suspension of Septoria tritici in an aqueous biomalt or yeast-bactopeptone-glycerine or DOB solution was then added.
The measured parameters were compared to the growth of the active compound-free control variant (100%) and the fungus-free blank value to determine the relative growth in % of the pathogens in the respective active compounds.

| Compound | growth of the pathogen (relative growth in %, control 100%) [%] |
| --- | --- |
| N#CN1c2ccccc2C(c2cnc3c(F)cccc3c2)=NC12CCCC2 [Ex-7] | 19 |
| CC1(C)N=C(c2cnc3c(F)cccc3c2)c2ccccc2N1C#N [Ex-8] | 19 |
| CCCCN1c2c(F)cccc2C(c2cnc3c(F)cccc3c2)=NC1(C)C [Ex-9] | 19 |
| CCN1c2c(F)cccc2C(c2cnc3c(F)cccc3c2)=NC1(C)C [Ex-10] | 19 |
| CCCN1c2c(F)cccc2C(c2cnc3c(F)cccc3c2)=NC1(C)C [Ex-11] | 19 |
